We go through 7 compounds from ChEMBL document CHEMBL5465560, “Selectivity Literature for EUbOPEN Chemogenomic Library” (2024).

The target in experiment [1] is Mitogen-activated protein kinase kinase kinase 9 (Homo sapiens) (UniProt P80192). Put plainly: Selectivity interaction (KinomeScan (DiscoverX)) EUB0000666a MAP3K9. The conditions noted are these: at 10 µM.
Experiment [2] concerns the target Serine/threonine-protein kinase Chk2 (Homo sapiens) (UniProt O96017). Put plainly: Selectivity interaction (ActivX KiNativ screen (kinase selectivity in THP-1 cell lysates)) EUB0000639a CHEK2. Type of experiment: subcellular. The following applies: lysate, at 0.04 µM.
Experiment [3] has as its target T1, Mitogen-activated protein kinase kinase kinase 2 (Homo sapiens) (UniProt Q9Y2U5).
T1 sequence (whole entry): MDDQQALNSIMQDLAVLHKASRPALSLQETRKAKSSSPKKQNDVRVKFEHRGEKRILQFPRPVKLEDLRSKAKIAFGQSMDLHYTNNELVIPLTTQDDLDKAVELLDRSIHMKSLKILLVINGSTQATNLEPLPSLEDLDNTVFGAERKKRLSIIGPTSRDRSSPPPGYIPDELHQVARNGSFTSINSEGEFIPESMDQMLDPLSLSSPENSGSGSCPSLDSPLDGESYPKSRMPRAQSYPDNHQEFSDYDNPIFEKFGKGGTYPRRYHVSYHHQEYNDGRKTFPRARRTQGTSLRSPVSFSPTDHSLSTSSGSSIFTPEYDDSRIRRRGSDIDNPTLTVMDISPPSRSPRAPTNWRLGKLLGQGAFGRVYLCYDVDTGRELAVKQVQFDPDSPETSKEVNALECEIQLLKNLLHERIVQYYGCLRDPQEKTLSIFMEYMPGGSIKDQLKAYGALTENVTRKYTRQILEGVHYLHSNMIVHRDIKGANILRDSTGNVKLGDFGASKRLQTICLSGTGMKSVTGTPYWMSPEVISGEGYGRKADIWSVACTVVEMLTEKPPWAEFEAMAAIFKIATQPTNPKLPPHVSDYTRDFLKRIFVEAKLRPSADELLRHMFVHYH
Put plainly: Selectivity interaction (ActivX KiNativ screen (kinase selectivity in THP-1 cell lysates)) EUB0000639a MAP3K2. It is filed as subcellular. The conditions noted are these: lysate, at 0.2 µM.

In experiment [4] the target is Ribosomal protein S6 kinase alpha-1 (Homo sapiens, UniProt Q15418). Put plainly: Selectivity interaction (KinomeScan (DiscoverX)) EUB0000045b RPS6KA1. The following applies: at 10 µM.
Chain of Ribosomal protein S6 kinase alpha-1 (Q15418 whole entry): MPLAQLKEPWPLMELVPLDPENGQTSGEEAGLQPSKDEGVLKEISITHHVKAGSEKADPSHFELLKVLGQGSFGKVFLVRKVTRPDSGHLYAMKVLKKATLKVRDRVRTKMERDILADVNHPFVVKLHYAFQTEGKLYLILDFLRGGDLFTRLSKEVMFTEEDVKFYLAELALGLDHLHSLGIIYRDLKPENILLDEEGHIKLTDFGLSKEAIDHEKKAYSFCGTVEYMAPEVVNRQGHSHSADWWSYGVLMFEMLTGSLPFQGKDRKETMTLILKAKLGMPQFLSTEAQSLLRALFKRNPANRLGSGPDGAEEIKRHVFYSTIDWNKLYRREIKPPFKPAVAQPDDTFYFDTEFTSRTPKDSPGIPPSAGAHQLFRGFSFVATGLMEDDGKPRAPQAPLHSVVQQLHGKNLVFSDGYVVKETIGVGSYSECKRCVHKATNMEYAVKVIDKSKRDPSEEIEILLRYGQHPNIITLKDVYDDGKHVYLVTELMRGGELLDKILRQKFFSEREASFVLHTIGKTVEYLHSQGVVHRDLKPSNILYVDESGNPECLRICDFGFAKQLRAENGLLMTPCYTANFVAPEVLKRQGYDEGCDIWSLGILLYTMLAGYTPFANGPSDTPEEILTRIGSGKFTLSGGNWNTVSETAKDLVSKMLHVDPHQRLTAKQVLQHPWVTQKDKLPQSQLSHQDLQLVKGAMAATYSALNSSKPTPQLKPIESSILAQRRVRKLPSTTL
Experiment [5] addresses T2, Mitogen-activated protein kinase kinase kinase kinase 2 (Homo sapiens) (UniProt Q12851).
T2 sequence (whole entry): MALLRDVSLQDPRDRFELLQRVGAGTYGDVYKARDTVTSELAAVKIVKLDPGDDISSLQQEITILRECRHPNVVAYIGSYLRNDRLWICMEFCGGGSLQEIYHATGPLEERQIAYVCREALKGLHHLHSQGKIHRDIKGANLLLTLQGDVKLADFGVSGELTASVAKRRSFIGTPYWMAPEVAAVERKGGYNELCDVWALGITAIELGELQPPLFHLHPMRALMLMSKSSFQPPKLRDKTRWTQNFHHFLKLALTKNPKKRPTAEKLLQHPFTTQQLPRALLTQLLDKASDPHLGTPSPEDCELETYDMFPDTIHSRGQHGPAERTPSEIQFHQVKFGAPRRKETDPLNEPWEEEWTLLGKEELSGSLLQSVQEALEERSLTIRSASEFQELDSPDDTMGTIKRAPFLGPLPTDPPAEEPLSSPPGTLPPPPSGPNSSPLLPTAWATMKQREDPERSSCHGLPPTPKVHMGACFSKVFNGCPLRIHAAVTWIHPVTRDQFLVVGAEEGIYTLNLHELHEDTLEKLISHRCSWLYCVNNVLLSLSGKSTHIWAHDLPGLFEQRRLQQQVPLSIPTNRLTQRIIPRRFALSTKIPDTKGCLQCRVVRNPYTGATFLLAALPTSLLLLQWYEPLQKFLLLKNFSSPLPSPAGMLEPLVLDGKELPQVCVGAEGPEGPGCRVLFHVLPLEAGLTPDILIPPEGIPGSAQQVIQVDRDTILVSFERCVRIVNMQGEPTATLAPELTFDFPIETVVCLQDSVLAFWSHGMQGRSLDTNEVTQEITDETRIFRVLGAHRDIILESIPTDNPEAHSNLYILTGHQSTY
Put plainly: Selectivity interaction (ProQinase) EUB0000171b MAP4K2.

The target of experiment [6] is Homeodomain-interacting protein kinase 1 (Homo sapiens, UniProt Q86Z02). Put plainly: Selectivity interaction (ProQinase) EUB0000171b HIPK1.
Chain of Homeodomain-interacting protein kinase 1 (Q86Z02 whole entry, looked up): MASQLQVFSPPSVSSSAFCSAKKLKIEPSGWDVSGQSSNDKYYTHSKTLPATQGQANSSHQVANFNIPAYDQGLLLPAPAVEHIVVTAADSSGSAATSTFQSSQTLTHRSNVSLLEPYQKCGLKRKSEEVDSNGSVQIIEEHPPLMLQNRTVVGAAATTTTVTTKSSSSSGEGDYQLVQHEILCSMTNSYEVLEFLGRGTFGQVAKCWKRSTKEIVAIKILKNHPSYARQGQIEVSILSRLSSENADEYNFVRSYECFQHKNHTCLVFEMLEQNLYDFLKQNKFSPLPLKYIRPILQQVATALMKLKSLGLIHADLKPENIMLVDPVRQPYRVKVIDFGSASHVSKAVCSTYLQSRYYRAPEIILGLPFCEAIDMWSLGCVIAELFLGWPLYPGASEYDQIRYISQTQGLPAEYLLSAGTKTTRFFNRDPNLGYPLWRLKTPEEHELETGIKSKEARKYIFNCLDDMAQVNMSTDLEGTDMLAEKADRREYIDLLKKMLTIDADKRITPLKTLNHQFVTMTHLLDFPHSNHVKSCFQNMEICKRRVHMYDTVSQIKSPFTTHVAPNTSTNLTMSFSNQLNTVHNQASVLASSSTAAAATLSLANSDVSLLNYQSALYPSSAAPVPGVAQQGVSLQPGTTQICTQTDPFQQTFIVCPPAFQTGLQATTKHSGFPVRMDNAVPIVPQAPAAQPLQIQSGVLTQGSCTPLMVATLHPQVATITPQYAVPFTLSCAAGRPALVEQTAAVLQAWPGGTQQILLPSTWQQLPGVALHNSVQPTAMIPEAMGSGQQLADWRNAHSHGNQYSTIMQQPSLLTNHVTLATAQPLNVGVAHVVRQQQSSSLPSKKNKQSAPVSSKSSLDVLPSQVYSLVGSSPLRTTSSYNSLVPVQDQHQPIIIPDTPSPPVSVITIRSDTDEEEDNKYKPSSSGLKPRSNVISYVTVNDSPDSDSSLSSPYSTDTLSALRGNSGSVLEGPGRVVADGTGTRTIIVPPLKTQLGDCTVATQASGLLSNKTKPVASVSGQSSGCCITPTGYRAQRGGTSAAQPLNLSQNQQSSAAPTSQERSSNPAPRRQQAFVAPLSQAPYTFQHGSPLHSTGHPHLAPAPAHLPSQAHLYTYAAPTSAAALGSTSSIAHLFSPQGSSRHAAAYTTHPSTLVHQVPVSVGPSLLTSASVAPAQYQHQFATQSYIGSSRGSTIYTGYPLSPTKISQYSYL
The target in experiment [7] is Protein kinase C delta type (Homo sapiens) (UniProt Q05655). Put plainly: Selectivity interaction (Ambit KINOMEscan and KiNATiv profiling in Jurkat cells) EUB0000090b PRKCD. Type of experiment: cell-based. The conditions noted are these: at 1 µM.
Chain of Protein kinase C delta type (Homo sapiens) (Q05655 whole entry, looked up): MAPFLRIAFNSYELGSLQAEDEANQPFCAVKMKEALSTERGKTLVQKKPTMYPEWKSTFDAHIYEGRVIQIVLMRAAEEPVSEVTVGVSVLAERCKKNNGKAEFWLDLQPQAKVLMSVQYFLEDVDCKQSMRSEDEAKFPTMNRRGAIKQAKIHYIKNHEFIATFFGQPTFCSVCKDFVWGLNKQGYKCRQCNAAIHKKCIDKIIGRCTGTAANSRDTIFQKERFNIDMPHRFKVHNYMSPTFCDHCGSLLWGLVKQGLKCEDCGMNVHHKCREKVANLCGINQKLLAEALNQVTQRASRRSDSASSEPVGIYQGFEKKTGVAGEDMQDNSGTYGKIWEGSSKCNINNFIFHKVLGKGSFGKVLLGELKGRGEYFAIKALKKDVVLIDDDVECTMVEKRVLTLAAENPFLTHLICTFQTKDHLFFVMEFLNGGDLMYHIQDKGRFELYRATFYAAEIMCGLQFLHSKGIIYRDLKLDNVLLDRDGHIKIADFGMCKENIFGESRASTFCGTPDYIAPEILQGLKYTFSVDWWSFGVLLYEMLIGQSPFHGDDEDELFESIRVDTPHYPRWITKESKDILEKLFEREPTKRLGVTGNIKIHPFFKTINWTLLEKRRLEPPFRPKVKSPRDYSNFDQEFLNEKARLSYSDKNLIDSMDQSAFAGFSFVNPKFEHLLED
Experiment [8] concerns the target T3, Peripheral plasma membrane protein CASK (Homo sapiens) (UniProt O14936).
T3 sequence (whole entry): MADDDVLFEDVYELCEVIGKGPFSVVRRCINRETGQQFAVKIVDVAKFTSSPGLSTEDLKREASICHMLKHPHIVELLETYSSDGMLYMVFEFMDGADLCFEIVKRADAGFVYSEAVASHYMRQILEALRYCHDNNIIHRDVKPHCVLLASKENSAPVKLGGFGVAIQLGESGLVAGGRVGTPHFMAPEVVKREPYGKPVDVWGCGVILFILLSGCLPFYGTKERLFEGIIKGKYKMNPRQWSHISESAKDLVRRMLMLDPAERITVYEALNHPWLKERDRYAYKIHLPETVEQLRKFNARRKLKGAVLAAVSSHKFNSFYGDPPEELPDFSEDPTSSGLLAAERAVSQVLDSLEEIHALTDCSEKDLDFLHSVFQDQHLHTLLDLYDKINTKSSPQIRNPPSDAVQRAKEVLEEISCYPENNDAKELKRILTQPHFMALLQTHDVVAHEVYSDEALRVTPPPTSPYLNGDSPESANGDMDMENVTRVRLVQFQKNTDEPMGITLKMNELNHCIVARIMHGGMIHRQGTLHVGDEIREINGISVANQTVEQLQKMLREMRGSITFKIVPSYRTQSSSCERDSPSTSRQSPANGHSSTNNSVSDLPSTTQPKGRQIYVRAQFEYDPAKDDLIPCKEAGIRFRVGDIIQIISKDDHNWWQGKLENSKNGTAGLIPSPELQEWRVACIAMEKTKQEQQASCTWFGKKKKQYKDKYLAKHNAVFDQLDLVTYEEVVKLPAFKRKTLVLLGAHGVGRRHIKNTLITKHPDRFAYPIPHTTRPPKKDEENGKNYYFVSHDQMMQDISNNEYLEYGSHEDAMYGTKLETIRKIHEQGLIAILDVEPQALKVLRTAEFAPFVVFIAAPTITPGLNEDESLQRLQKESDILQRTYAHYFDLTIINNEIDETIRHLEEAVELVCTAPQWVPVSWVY
Put plainly: Selectivity interaction (KinomeScan (DiscoverX)) EUB0001049a CASK. The following applies: at 1 µM.

Experiment [9] addresses Casein kinase I isoform epsilon (Homo sapiens, UniProt P49674). Put plainly: Selectivity interaction (KinomeScan (DiscoverX)) EUB0000229b CSNK1E. The conditions noted are these: at 10 µM.

Chain of Casein kinase I isoform epsilon (P49674 whole entry, looked up, canonical isoform): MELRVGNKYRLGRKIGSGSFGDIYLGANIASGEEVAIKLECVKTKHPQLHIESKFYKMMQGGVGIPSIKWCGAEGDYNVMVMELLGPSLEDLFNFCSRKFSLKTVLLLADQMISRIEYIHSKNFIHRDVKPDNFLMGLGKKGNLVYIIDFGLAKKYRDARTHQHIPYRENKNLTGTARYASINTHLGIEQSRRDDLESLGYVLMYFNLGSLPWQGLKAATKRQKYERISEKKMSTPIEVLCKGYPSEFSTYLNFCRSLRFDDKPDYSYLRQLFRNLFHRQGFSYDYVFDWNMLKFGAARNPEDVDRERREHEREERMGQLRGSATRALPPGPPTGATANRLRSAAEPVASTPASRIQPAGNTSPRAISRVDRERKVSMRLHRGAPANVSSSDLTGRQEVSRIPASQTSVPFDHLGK
Chain of Serine/threonine-protein kinase Chk2 (Homo sapiens) (O96017 whole entry): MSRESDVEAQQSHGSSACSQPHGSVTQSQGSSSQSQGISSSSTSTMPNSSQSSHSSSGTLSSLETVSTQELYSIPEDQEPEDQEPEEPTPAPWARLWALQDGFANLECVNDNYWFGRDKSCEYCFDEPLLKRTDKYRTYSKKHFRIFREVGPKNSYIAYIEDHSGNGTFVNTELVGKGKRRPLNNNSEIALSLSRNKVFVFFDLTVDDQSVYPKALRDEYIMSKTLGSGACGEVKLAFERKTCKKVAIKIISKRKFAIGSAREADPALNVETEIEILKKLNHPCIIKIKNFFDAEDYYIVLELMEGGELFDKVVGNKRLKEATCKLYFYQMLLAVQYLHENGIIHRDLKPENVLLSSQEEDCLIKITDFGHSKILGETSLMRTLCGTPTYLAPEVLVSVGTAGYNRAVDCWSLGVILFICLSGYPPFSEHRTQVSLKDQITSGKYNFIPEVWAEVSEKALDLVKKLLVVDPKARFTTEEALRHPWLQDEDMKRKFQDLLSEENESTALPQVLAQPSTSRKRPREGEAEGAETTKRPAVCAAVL
Chain of Mitogen-activated protein kinase kinase kinase 9 (Homo sapiens) (P80192 whole entry, looked up): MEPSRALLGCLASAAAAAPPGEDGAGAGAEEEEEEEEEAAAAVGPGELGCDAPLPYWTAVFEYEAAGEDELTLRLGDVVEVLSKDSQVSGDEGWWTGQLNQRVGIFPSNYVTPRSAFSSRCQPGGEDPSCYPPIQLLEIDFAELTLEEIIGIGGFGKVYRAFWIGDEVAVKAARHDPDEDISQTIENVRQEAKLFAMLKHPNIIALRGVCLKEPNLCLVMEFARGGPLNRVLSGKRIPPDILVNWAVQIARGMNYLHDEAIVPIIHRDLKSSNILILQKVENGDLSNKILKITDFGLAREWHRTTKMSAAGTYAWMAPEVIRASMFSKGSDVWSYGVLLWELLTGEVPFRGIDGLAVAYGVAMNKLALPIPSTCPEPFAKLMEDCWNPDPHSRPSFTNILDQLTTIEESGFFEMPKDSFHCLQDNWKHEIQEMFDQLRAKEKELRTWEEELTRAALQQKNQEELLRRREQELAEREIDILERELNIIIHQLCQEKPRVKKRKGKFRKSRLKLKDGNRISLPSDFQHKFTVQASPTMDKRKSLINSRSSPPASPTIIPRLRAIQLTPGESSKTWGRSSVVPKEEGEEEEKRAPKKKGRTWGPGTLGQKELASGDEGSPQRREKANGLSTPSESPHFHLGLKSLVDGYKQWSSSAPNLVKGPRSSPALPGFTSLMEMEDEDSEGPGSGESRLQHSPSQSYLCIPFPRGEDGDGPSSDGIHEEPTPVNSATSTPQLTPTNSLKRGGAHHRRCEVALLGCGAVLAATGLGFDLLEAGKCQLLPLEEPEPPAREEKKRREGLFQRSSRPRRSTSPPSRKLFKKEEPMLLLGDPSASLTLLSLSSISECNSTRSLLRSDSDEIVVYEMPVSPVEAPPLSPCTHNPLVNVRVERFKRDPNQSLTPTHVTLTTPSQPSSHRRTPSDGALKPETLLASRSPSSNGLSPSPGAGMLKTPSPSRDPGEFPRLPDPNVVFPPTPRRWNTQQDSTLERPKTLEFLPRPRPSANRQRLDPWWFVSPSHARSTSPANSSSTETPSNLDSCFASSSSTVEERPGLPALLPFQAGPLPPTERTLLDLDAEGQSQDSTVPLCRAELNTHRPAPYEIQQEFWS

With `O=C(NOC[C@H](O)CO)c1ccc(F)c(F)c1Nc1ccc(I)cc1F`, the % of control in [1] came out at 95%.
In the case of `CC[C@@H]1[C@H](F)C(=O)N[C@@H]1COc1nccc2cc(C(N)=O)c(OC)cc12` [ZIMLOVISERTIB], the % of inhibition in [2] was -4.5%; in experiment [3], -1.4%.
As to `C=CC(=O)Nc1cc(-n2c(=O)ccc3cnc4ccc(-c5ccc(NS(C)(=O)=O)cc5)cc4c32)ccc1C`, the % of control in experiment [4] was determined as 78%.
`C=CC(=O)Nc1cccc(C(=O)Nc2ccc(Nc3cc(-c4[nH]c(SC)nc4C)ccn3)cc2)c1`: the % of control in experiment [5] (at 1 µM) was 89%; in experiment [5] (at 5 µM) it was 50%; in experiment [6] (at 1 µM) it was 103%; in [6] (at 5 µM), 143%.
As to `CN(C)C/C=C/C(=O)Nc1ccc(C(=O)N2CCCC(Nc3ncc(Cl)c(-c4c[nH]c5ccccc45)n3)C2)cc1` (stereo unspecified), in experiment [7], the % of control stood at 75%.
`COc1cc(Nc2nc(C)cc(-c3cnn4nc(OC)ccc34)n2)cc(C(F)(F)F)c1` displayed a % of control in experiment [8] of 65%.
Compound `COc1cc(N(C)c2ccnc3ccc(C(F)(F)F)cc23)cc(OC)c1OC` yielded a % binding in [9] of 54%.
